How the values were obtained:
OV15696 xenograft = assay: Ovarian PDX OV15696, tumor volume; format: in vivo, mouse; details: 40 or 30 mg/kg i.v. BIW
Description: Patient-derived xenograft (PDX) models from ovarian carcinoma patients (OV5387, OV14702, OV14972, OV15398, OV15576, OV15696, OV15612, OV15631) were established in NOD-SCID mice at Crown Bioscience (San Diego, USA). Cryo vials containing tumor cells were thawed and prepared for injection into mice. Cells were washed in PBS, counted, and resuspended in cold PBS at a concentration of 50,000-100,000 viable cells/100 ul. Cell suspensions were mixed with an equal volume of Cultrex ECM and kept on ice during transport to the vivarium. Cells were prepared for injections by withdrawing ECM-Cell mixture into a chilled slip-tip syringe fitted with a 26G 7/8 (0.5 mm×22 mm) needle. The filled syringes were kept on ice to avoid the solidification of ECM. Each mouse was inoculated subcutaneously in the right flank with 200 uL of the cell suspension. Tumor sizes were measured in two dimensions using a caliper, and the volumes were expressed in mm3 using the formula: V=0.5 a×b^2 where a and b are the longest and shortest diameters of the tumor, respectively. Compound 1 treatment was started when the average tumor size reached 150-200 mm^3.
Compound 1 was formulated in w/v 20% Captisol (pH 4-6) and administered by i.v. twice weekly (BIW) at a final dose of 40 mg/kg or 30 mg/kg in a 10 ml/kg volume. Tumor volumes were measured twice weekly over the course of the study. […]

[1] = test system: gene expression in MDA-MB468 cells; assay: Gene expression profiling via RNA-seq (DESeq2, linear model), MDA-MB468; format: cell-based; details: four hours, JQ1 125 nM, Compound 1 25 nM
Description: In addition, we compared the ability of JQ1 alone, Compound 1 alone, and a combination of JQ1 and Compound 1 to modify expression of various genes in two breast cancer cell lines. Two triple-negative breast cancer cell lines (HCC70 and MDA-MB468) were tested. The cell lines were treated with JQ1, Compound 1, the JQ1/Compound 1 combination, or DMSO for four hours, after which gene expression profiling via RNA-seq was performed. JQ1 was administered to the cells at a 125 nM final concentration in both single agent and combination experiments. Compound 1 was administered to the cells at a 25 nM final concentration in both single agent and combination experiments. Each experiment was performed in triplicate. One replicate of MDA-MB-468 treated with single-agent JQ1 was excluded from further analysis due to quality.
We employed DESeq2 (Love et al., Genome Biology, 15(12):550, 2014) to identify changes in gene expression due to the JQ1, Compound 1, and JQ1-Compound 1 combination treatment compared to the control DMSO condition based on the RNA-seq data. Genes resulting in a p-value below 0.01 and an absolute logFoldChange above 0.5 were considered to be differentially expressed. […] The same is true for 1459 of 2414 genes in MDA-MB468.
To identify the genes whose expression is impacted synergistically by the drug combination, we modeled the effect of each drug treatment on expression using a linear model. The expression of each gene after the combination treatment can be thought of as the combined impact of Compound 1, JQ1, and any synergistic interaction between the drug treatments on baseline gene expression. A linear model used to describe this relationship could therefore be represented as:
Gene Expression after combination treatment=Baseline Expression+Compound 1 effect+JQ1 effect+Combination effect (Synergistic Impact)
By fitting the expression data for each gene using this model, we were able to evaluate the effect of each treatment, and identify cases where a synergistic interaction between Compound 1 and JQ1 impacts final gene expression. After fitting the linear model to each gene, the weight and p-value of each term can be evaluated. The combination term's weight signifies the mean change resulting from a synergetic impact on expression, with a negative weight indicating synergistic downregulation. Its associated p-value represents the probability that the combination term is not relevant to final gene expression. Using this approach, we identified 1806 genes in HCC70 and 2205 genes in MDA-MB468 whose expression change in the combination treatment was synergistic and whose associated p-value was less than a threshold cutoff of 0.01. The expression of these synergistic genes could not be explained by an additive effect of Compound 1 and JQ1 alone.

[2] = test system: MCL1 protein in MDAMB453 cells; assay: Western blot of BCL2 family proteins, MDAMB453; format: cell-based, human; details: 50 nM or 100 nM, 24 hours
Description: (§1) Cytotoxic cancer cell lines HCC70 and TOV21G, and cytostatic cancer cell lines T47D and COV318 were seeded in wells of a six-well dish at a density of 1×10^6 cells/well and allowed to adhere overnight. Cells were then treated with 50 nM of Compound 1 for 16 or 24 hours, or with DMSO (0 hours) representing a negative control. Cells were harvested and placed on ice, and resuspended in RIPA lysis buffer supplemented with protease and phosphatase inhibitors. Clarified lysates prepared with 4×LSD running buffer and boiled at 95° C. for 5 minutes. Equivalent amounts of sample (10 μg total protein) were run on a 4-12% Bis-Tris gel and transferred to a PDVF membrane for Western blotting using standard Western blotting protocols. Membranes were blocked with Licor TBS blocking buffer then probed with antibodies for BCL-XL, BCL-2, MCL1, BID, and GAPDH visualized using and Odyssey imager (FIGS. 23A and 23D).
(§2) In a similar experiment, TNBC breast cancer cell lines HCC70, MDAMB468, MDAMB453 and CAL-120 were grown as described above and treated with DMSO, 50 nM Compound 1 or 100 nM Compound 1 for 24 hours. Protein samples were prepared as described above for Western blotting using antibodies specific for the indicated proteins in FIG. 29A. […]

[3] = test system: MCL1 protein in MDAMB468 cells; assay: Western blot of BCL2 family proteins, MDAMB468; format: cell-based, human; details: 50 nM or 100 nM, 24 hours
Description: as §1, §2

In the case of `CN(C)C/C=C/C(=O)Nc1ccc(C(=O)N[C@@]2(C)CCC[C@@H](Nc3ncc(Cl)c(-c4c[nH]c5ccccc45)n3)C2)nc1` [Compound 1, N-((1S,3R)-3-(5-chloro-4-(1H-indol-3-yl)pyrimidin-2-ylamino)-1-methylcyclohexyl)-5-((E)-4-(dimethylamino)but-2-enamido)picolinamide], the “Response to treatment (tumor growth)” value (OV15696 xenograft) is reported as “non-responders”, the “Average Expression (TPM) FOXC1” value ([1]; DMSO 33.731) is reported as 25.556 TPM and the “Average Expression (TPM) GATA3” value ([1]; DMSO 34.244) is reported as 21.773 TPM. For the same molecule, the “Average Expression (TPM) TGIF1” value ([1]; DMSO 145.88) was 134.08 TPM, the “MCL1 protein level (Western blot)” value [2] was “downregulated” and the “MCL1 protein level (Western blot)” value [3] was “downregulated”.

From patent publication US20200113902A1, “COMPOSITIONS AND METHODS FOR TREATING CANCERS WITH COVALENT INHIBITORS OF CYCLIN-DEPENDENT KINASE 7 (CDK7)” (Syros Pharmaceuticals, Inc., priority 2017, published 2020)
